This is an account of results in US9487490B2, “3-cyclohexenyl and cyclohexyl substituted indole and indazole compounds as RORgammaT inhibitors and uses thereof” (Merck Sharp & Dohme Corp., priority 2012, dated 2016).

This assay has as its target human RORgammaT-Ligand Binding Domain (LBD) (Homo sapiens (Human), UniProt P51449). In words: RORγ-Ligand Binding Domain TR-FRET assay (co-activator peptide SRC1_2 recruitment). The assay is classed as biochemical. The conditions noted are these: HIS-tagged RORγ-LBD 3 nM, biotinylated SRC1 LXXLL peptide 100 nM, incubated overnight at 4° C., 665 nm/615 nm signal quotient. The text has this: Activation of RORgammaT activity can be measured using, e.g., biochemical TR-FRET assay. In such an assay, interaction of cofactor-derived peptides with human RORgammaT-Ligand Binding Domain (LBD) can be measured.
To identify novel antagonists of RORgammaT, an assay was developed which employs the interaction of RORgammaT with its co-activator peptide SRC1_2. […] The RORγ-Ligand Binding Domain TR-FRET Assay was run according to the following protocol.
HIS-tagged RORγ-LBD protein was expressed in SF9 cells using a baculovirus expression system. The RORγ-LBD protein was purified by glutathione sepharose chromatography. Separately, SF9 cells not expressing any recombinant protein were lysed and the lysate was added to the purified RORγ-LBD at 0.25 μl lysate (from 10,000 SF9 cells)/nM purified protein. The mixture was then diluted in assay buffer (50 mM Tris pH 7.0, 50 mM KCl, 1 mM EDTA, 0.1 mM DTT) to obtain RORγ-LBD final concentration of 3 nM in 384-well assay plate.
Compounds to be tested were injected to the assay plate using Acoustic Droplet Ejection technology by Echo 550 liquid handler (Labcyte, Calif.).
(Time-resolved FRET reads energy transfer from a long-lived donor to a nearby acceptor.)

Read-outs that look alike come from different tables or passages of the source.

Chain of human RORgammaT-Ligand Binding Domain (LBD) (P51449 269-508): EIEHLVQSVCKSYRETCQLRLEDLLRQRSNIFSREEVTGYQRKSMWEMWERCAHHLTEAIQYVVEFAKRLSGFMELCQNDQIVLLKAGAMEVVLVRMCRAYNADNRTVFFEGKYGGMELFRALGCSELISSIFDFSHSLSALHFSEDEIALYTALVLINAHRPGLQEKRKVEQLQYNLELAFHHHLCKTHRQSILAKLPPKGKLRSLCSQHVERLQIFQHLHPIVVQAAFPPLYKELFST

Usually IC50 stands for the concentration that gives 50% inhibition. Consider `COC1CN(C(=O)c2ccc3c(C4=CC[C@@](C)(C(=O)O)CC4)nn(C(=O)c4c(Cl)cccc4C4CC4)c3c2)C1` (single isomer, unassigned) [Example 2D, (S or R)-4-(1-(2-chloro-6-cyclopropylbenzoyl)-6-(3-methoxyazetidine-1-carbonyl)-1H-indazol-3-yl)-1-methylcyclohex-3-enecarboxylic acid], for which the IC50 (read-out: Fret IC50) amounted to 5 nM. Take `CN(C(=O)c1ccc2c(C3=CCC(C(=O)O)CC3)nn(C(=O)c3c(Cl)cccc3C(F)(F)F)c2c1)C1CCCCC1` (stereo not shown) [Example 4K, 4-(1-(2-chloro-6-(trifluoromethyl)benzoyl)-6-(cyclohexyl(methyl)carbamoyl)-1H-indazol-3-yl)cyclohex-3-enecarboxylic acid]: the 50% inhibitory concentration (IC50) (read-out: Fret IC50) was 94 nM.

On to `CNCC(CO)OC(=O)c1ccc2c(C3=CCC(C(=O)O)CC3)nn(C(=O)c3c(Cl)cccc3C(F)(F)F)c2c1` (stereo not shown) [Example 4Z, 4-(1-(2-chloro-6-(trifluoromethyl)benzoyl)-6-(((1-hydroxy-3-(methylamino)propan-2-yl)oxy)carbonyl)-1H-indazol-3-yl)cyclohex-3-enecarboxylic acid], for which the IC50 (read-out: Fret IC50) came to 258 nM. In the case of `CC1(C)CC(c2nn(C(=O)c3c(Cl)cccc3C(F)(F)F)c3cccc(F)c23)=CCC1C(=O)O` (racemic) [Example 10B, (R and S) 4-(1-(2-chloro-6-(trifluoromethyl)benzoyl)-4-fluoro-1H-indazol-3-yl)-6,6-dimethylcyclohex-3-enecarboxylic acid], the IC50 (Fret IC50 (nM)) was found to be 96 nM. As to `C[C@@H]1CCCN1C(=O)c1ccc2c(C3=CCC(C(=O)O)CC3)nn(C(=O)c3c(Cl)cccc3C(F)(F)F)c2c1` (stereo partly drawn) [Example 4H, 4-(1-(2-chloro-6-(trifluoromethyl)benzoyl)-6-((R)-2-methylpyrrolidine-1-carbonyl)-1H-indazol-3-yl)cyclohex-3-enecarboxylic acid], the IC50 (read-out: Fret IC50) turned out to be 115 nM. The same measure, in the same setting: the same measure for `CC1(C(=O)O)CC=C(c2nn(C(=O)c3c(Cl)cccc3C(F)(F)F)c3cccnc23)CC1` (stereo not shown) [Example 1F, 4-(1-(2-chloro-6-(trifluoromethyl)benzoyl)-1H-pyrazolo[4,3-b]pyridin-3-yl)-1-methylcyclohex-3-enecarboxylic acid]: 170 nM; for `CN(C(=O)c1ccc2c(C3=CCC(C(=O)O)CC3)nn(C(=O)c3c(Cl)cccc3C(F)(F)F)c2c1)C1CCOCC1` (stereo not shown) [Example 4P, 4-(1-(2-chloro-6-(trifluoromethyl)benzoyl)-6-(methyl(tetrahydro-2H-pyran-4-yl)carbamoyl)-1H-indazol-3-yl)cyclohex-3-enecarboxylic acid]: 41 nM; for `CN1CCN(C(=O)c2ccc3c(C4=CCC(C(=O)O)CC4)nn(C(=O)c4c(Cl)cccc4C(F)(F)F)c3c2)CC1=O` (stereo not shown) [Example 4N, 4-(1-(2-chloro-6-(trifluoromethyl)benzoyl)-6-(4-methyl-3-oxopiperazine-1-carbonyl)-1H-indazol-3-yl)cyclohex-3-enecarboxylic acid]: 3 nM. Turning to `C[C@H]1CCCN1C(=O)c1ccc2c(C3=CCC(C(=O)O)CC3)nn(C(=O)c3c(Cl)cccc3C(F)(F)F)c2c1` (stereo partly drawn) [Example 4G, 4-(1-(2-chloro-6-(trifluoromethyl)benzoyl)-6-((S)-2-methylpyrrolidine-1-carbonyl)-1H-indazol-3-yl)cyclohex-3-enecarboxylic acid], the IC50 (read-out: Fret IC50) amounted to 6 nM. On to `CC(C)NC(=O)c1ccc2c(C3=CCC(C(=O)O)CC3)nn(C(=O)c3c(Cl)cccc3C(F)(F)F)c2c1` (stereo not shown) [Example 4T, 4-(1-(2-chloro-6-(trifluoromethyl)benzoyl)-6-(isopropylcarbamoyl)-1H-indazol-3-yl)cyclohex-3-enecarboxylic acid], for which, where the note is “read-out: Fret IC50”, the IC50 came to 1120 nM. As for `O=C(O)C1CC=C(c2cn(C(=O)c3c(Cl)cccc3C(F)(F)F)c3cccc(F)c23)CC1` (stereo not shown) [Example 5A, 4-(1-(2-chloro-6-(trifluoromethyl)benzoyl)-4-fluoro-1H-indol-3-yl)cyclohex-3-enecarboxylic acid], the IC50 (read-out: Fret IC50) was 4 nM. The same measure, in the same setting: then `O=C(O)C1CCC(c2nn(C(=O)c3c(Cl)cccc3C(F)(F)F)c3cccc(F)c23)=CC1O` (stereo not shown) [Example 6A, 4-(1-(2-chloro-6-(trifluoromethyl)benzoyl)-4-fluoro-1H-indazol-3-yl)-2-hydroxycyclohex-3-enecarboxylic acid], with 2 nM; and `C[C@@H]1COCCN1C(=O)c1ccc2c(C3=CCC(C(=O)O)CC3)nn(C(=O)c3c(Cl)cccc3C(F)(F)F)c2c1` (stereo partly drawn) [Example 4Q, 4-(1-(2-chloro-6-(trifluoromethyl)benzoyl)-6-((R)-3-methylmorpholine-4-carbonyl)-1H-indazol-3-yl)cyclohex-3-enecarboxylic acid], with 380 nM. For the molecule `O=C(NC1CC1)c1ccc2c(C3=CCC(C(=O)O)CC3)nn(C(=O)c3c(Cl)cccc3C(F)(F)F)c2c1` (stereo not shown) [Example 4B, 4-(1-(2-chloro-6-(trifluoromethyl)benzoyl)-6-(cyclopropylcarbamoyl)-1H-indazol-3-yl)cyclohex-3-enecarboxylic acid], where the note is “read-out: Fret IC50”, the IC50 turned out to be 143 nM. Still for that read-out and setting: the same measure for `CN(CCO)C(=O)c1ccc2c(C3=CCC(C(=O)O)CC3)nn(C(=O)c3c(Cl)cccc3C(F)(F)F)c2c1` (stereo not shown) [Example 4S, 4-(1-(2-chloro-6-(trifluoromethyl)benzoyl)-6-((2-hydroxyethyl)(methyl)carbamoyl)-1H-indazol-3-yl)cyclohex-3-enecarboxylic acid]: 40 nM. Same read-out and setting: the same measure for `O=C(O)C1CCC(O)(c2nn(C(=O)c3c(Cl)cccc3C(F)(F)F)c3cccc(F)c23)CC1` (stereo not shown) [Example 13A, 4-(1-(2-chloro-6-(trifluoromethyl)benzoyl)-4-fluoro-1H-indazol-3-yl)-4-hydroxycyclohexanecarboxylic acid]: 2470 nM; for `C[C@]1(c2nn(C(=O)c3c(Cl)cccc3C(F)(F)F)c3cccc(F)c32)CC[C@@H](C(=O)O)CC1` [Example 7C, (cis)-4-(1-(2-chloro-6-(trifluoromethyl)benzoyl)-4-fluoro-1H-indazol-3-yl)-4-methylcyclohexanecarboxylic acid]: 872 nM; for `CC1CC(C(=O)O)CC=C1c1nn(C(=O)c2c(Cl)cccc2C(F)(F)F)c2cccc(F)c12` (racemic) [Example 12A, 4-(1-(2-chloro-6-(trifluoromethyl)benzoyl)-4-fluoro-1H-indazol-3-yl)-5-methylcyclohex-3-enecarboxylic acid]: 54 nM. `O=C(c1c(Cl)cccc1C(F)(F)F)n1nc([C@H]2CC[C@H](C(=O)O)CC2)c2ncccc21` [Example 11A, (trans)-4-(1-(2-chloro-6-(trifluoromethyl)benzoyl)-1H-pyrazolo[4,3-b]pyridin-3-yl)cyclohexanecarboxylic acid]: where the note is “read-out: Fret IC50”, the IC50 was 207 nM.

As for `CC1(C)C=C(c2nn(C(=O)c3c(Cl)cccc3C(F)(F)F)c3cccc(F)c23)CCC1C(=O)O` (racemic) [Example 10A, (R and S)-4-(1-(2-chloro-6-(trifluoromethyl)benzoyl)-4-fluoro-1H-indazol-3-yl)-2,2-dimethylcyclohex-3-enecarboxylic acid], for the setting “Fret IC50 (nM)”, the IC50 turned out to be 343 nM. Regarding `C[C@]1(C(=O)O)CC[C@H](c2nn(C(=O)c3c(Cl)cccc3C(F)(F)F)c3cccc(F)c32)CC1` [Example 9A, (trans)-4-(1-(2-chloro-6-(trifluoromethyl)benzoyl)-4-fluoro-1H-indazol-3-yl)-1-methylcyclohexanecarboxylic acid], where the note is “read-out: Fret IC50”, the IC50 turned out to be 50 nM. On to `C[C@H]1COCCN1C(=O)c1ccc2c(C3=CCC(C(=O)O)CC3)nn(C(=O)c3c(Cl)cccc3C(F)(F)F)c2c1` (stereo partly drawn) [Example 4O, 4-(1-(2-chloro-6-(trifluoromethyl)benzoyl)-6-((S)-3-methylmorpholinc-4-carbonyl)-1H-indazol-3-yl)cyclohex-3-enecarboxylic acid], for which the IC50 (read-out: Fret IC50) worked out at 308 nM.

With `C[C@]1(c2nn(C(=O)c3c(Cl)cccc3C(F)(F)F)c3cccc(F)c32)CC[C@H](C(=O)O)CC1` [Example 7B, (trans)-4-(1-(2-chloro-6-(trifluoromethyl)benzoyl)-4-fluoro-1H-indazol-3-yl)-4-methyl cyclohexanecarboxylic acid], the IC50 (read-out: Fret IC50) is 663 nM. The same measure, in the same setting: then `O=C(O)C1CC=C(c2nn(C(=O)c3c(Cl)cccc3C(F)(F)F)c3cccc(F)c23)CC1O` (stereo not shown) [Example 6B, 4-(1-(2-chloro-6-(trifluoromethyl)benzoyl)-4-fluoro-1H-indazol-3-yl)-6-hydroxycyclohex-3-enecarboxylic acid], with 15 nM; and `Cc1cccc(Cl)c1C(=O)n1nc(C2=CCC(C(=O)O)CC2)c2c(F)cccc21` (stereo not shown) [Example 1K, 4-(1-(2-chloro-6-methylbenzoyl)-4-fluoro-1H-indazol-3-yl)cyclo-hex-3-enecarboxylic acid], with 31 nM.
